One data set deals with plasma protein. The settings on record: cited from earlier work; for fb,pl (plasma bound fraction): extracted from the literature (geldanamycin value assumed).
The next data set has as its system rats. The settings on record: Sprague Dawley rats, GD 6 through LD 20; ref US FDA [2012]; cited from earlier work.
The nature of data set [1]: PBPK reverse modeling of nominal equivalent concentration (NEC), rat data. As for the experimental part:
(§1) The lipid content and albumin concentrations of the test media N2 and BHK medium were calculated on the basis of the available information provided by the suppliers (Fig. S2A). The data on rat plasma have been adopted from (Verwei et al. [2006]). The original references are (Barber et al. [1990]) for albumin and (DeJongh et al. [1997]) for lipids. Human plasma values were taken from (Gulden and Seibert [2003]). The original data on albumin are from (Lindup [1987]) and for lipids from (Patterson et al. [1988]). Total protein concentrations were calculated based on the assumption that the protein molar mass is similar to the one of albumin (66 kDa). Albumin was assumed to represent 60 and 48 % of the total serum proteins (mg/ml) in human and rat (Baker et al. [1979]; Busher [1990]) (Fig. S2A).
(a) Developmental toxicity (DT)—inducing concentrations were extrapolated from the in vivo study reported in the document by the Australian Therapeutic Goods Administration (Australian Therapeutic Goods Administration [2014]). […] (b) Toxicokinetic parameters of abiraterone in rats were extracted from the available report from the TGA (Australian Therapeutic Goods Administration [2014]). […] (c) The nominal in vitro concentrations equivalent to the concentration used in vivo were calculated using the value of total protein concentration instead of albumin concentration. […]
(c) The nominal in vitro concentrations equivalent to the concentration used in vivo in rats and humans (Cmax and Cavg) were determined assuming only binding to the specific drug-binding proteins (albumin and/or α1-acid glycoprotein) (Fig. S2D).

Data set [2] in a line: PBPK reverse modeling of nominal equivalent concentration (NEC), human data. As for the experimental part: as §1, with “To evaluate the human relevance of in vitro concentrations found to be toxic in this study, an in vitro–in vivo comparison of the toxicity data was performed using a physiology-based pharmacokinetic (PBPK) reverse modeling approach. […] The lipid” for “The lipid”
(a) Developmental toxicity (DT)—inducing concentrations were extrapolated from the in vivo study reported in the document by the Australian Therapeutic Goods Administration (Australian Therapeutic Goods Administration [2014]). In an embryo-fetal developmental toxicity study in rats, abiraterone acetate induced developmental toxicity when administered at oral doses of 10, 30 or 100 mg/kg/day throughout the period of organogenesis (gestational days 6–17). Findings include embryo-fetal lethality (increased postimplantation loss and decreased number of living fetuses), fetal developmental delay (skeletal effects), and urogenital effects (bilateral ureter dilation) at doses ≥10 mg/kg/day (Australian Therapeutic Goods Administration [2014]). (b) Toxicokinetic parameters of abiraterone in rats were extracted from the available report from the TGA (Australian Therapeutic Goods Administration [2014]). […] The average concentration (Cavg) was calculated from the ratio of AUC and the dose interval (τ) of 24 h. The percentage of plasma protein binding of the drug was reported as being 99.8 %, without relevant species differences occurring (US FDA [2011]). (c) The nominal in vitro concentrations equivalent to the concentration used in vivo were calculated using the value of total protein concentration instead of albumin concentration.
Clinical signs included malrotated forepaws/hindpaws, discoloration of the body surface, impaired coat growth, eye opacity, and eye discharge with absence of pupillary reflex were observed (US FDA [2012]). […] The Cavg was calculated as the ratio of AUC and the dose interval (τ) of 24 h. TF is reported to be extensively bound in plasma, probably mostly to albumin, with an average bound fraction of 99.46 % (Russo et al. [2013]). (c) The nominal in vitro concentrations equivalent to the concentration used in vivo in rats and humans (Cmax and Cavg) were determined assuming only binding to the specific drug-binding proteins (albumin and/or α1-acid glycoprotein) (Fig. S2D).
To compare the effective/toxic concentrations found in our study with relevant in vivo concentrations, we used a reverse pharmacokinetic modeling approach for three exemplary compounds: teriflunomide, geldanamycin, and abiraterone. Firstly, we used a literature data mining approach to identify toxic or clinically relevant plasma concentrations reported in published animal studies (in relation to developmental toxicity or neurotoxicity) or clinical measurements (mostly in relation to drug efficacy). Then those values were used as points-of-departure to calculate the nominal equivalent concentrations (NEC) in both cell culture media used in our study, the BHK and N2 medium. These two media (used to expose the ESCs and the ESC-derived neurons) contained different amounts of protein and lipid and therefore required separate calculations of the NEC. […]

A short description of another data set: Toxicokinetics in rats. It counts as in vivo. The conditions noted are these: rat, plasma.
For data set [3] the following is noted: cited from earlier work.
For data set [4] the following is noted: extracted from the literature; cited from earlier work.
The next data set relates to Thy1-GFP transgenic rats. Details: method as in Sun et al. [2012]. The settings on record: ref Sun et al. [2012]; cited from earlier work.
The conditions of data set [5]: cited from earlier work. This is another data set of the same source.
For another data set, the system named is mice. Set-up: method as in https://www.spectrumchemical.com/MSDS/TCI-G0334.pdf. The conditions noted are these: ref https://www.spectrumchemical.com/MSDS/TCI-G0334.pdf; cited from earlier work.
Data set [6] has as its system neural crest cell migration. Details: method as in Zimmer et al. [2012]. The conditions noted are these: ref Zimmer et al. [2012]; cited from earlier work.
Data set [7] relates to neuroepithelial precursor cell migration. Set-up: method as in Zimmer et al. [2012]. The settings on record: ref Zimmer et al. [2012]; cited from earlier work.
Where [8] appears, read: Sprague Dawley, oral, rats, 0.3 mg/kg, estimated proportional to reported kinetics at 1 mg/kg (US FDA [2012]).

Read-outs that look alike come from different tables or passages of the source.

In the case of `C/C(O)=C(\C#N)C(=O)Nc1ccc(C(F)(F)F)cc1` [Teriflunomide], the “fb,pl (plasma bound fraction)” value in the data set on plasma protein is given as 0.995. Moreover, in the data set on plasma protein (ref Russo et al. [2013]), the “average bound fraction in plasma” value is 99.46%. In the data set on rats, the “oral dose leading to teratogenicity” value is given as 0.3 mg/kg/day. Further, in data set [1] (Cavg), the “Free concentration in vivo” value amounted to 11.7 nM and the “Total concentration in vivo (ECpl)” value stood at 5.09 µM. Moreover, in data set [1] (Cmax), the “Free concentration in vivo” value worked out at 25.6 nM and the “Total concentration in vivo (ECpl)” value is 11.1 µM. In addition, in data set [2] (Cavg), the “Free concentration in vivo” value came to 280 nM and the “Total concentration in vivo (ECpl)” value is 165 µM. In the data set “Toxicokinetics in rats” (setting [8]), the AUC (commonly the area under the concentration-time curve, a measure of exposure) is approximately 33 µg·h/mL and the Cmax (as a rule, the maximum level reached in the sampled fluid or tissue) was approximately 3000 ng/mL. Besides, in [3] (healthy individuals, daily oral dose of 14 mg, ref Australian Therapeutic Goods Administration [2013]), the “24 h AUC at steady state” value was 1070 µg·h/mL. The “Kow (octanol:water partition coefficient)” value (from here on “Kow”) in [4] is recorded as 327.
As for `COC1=C2C[C@@H](C)C[C@H](OC)[C@H](O)[C@@H](C)/C=C(\C)[C@H](OC(N)=O)[C@@H](OC)/C=C\C=C(/C)C(=O)NC(=CC1=O)C2=O` [Geldanamycin], the “fb,pl (plasma bound fraction)” value in the data set on plasma protein was 0.990. Moreover, in data set [1] (Cmax), the “Free concentration in vivo” value stood at 8.91 nM and the “Total concentration in vivo (ECpl)” value came out at 2.23 µM. The Cmax in the data set “Toxicokinetics in rats” (Thy1-GFP transgenic, dose of 0.2 mg/kg, calculated from mouse volume of distribution) is 1250 ng/mL. Moreover, in the data set with Thy1-GFP transgenic rats, the “dose affecting nerve recovery / neurodifferentiation” value is on record as 0.2 mg/kg/day. Further, in data set [5], the aqueous solubility result was “poor”. Further, the LD50 (in general, the dose at which mortality reaches 50%) with mice is 1 mg/kg. Besides, in data set [4], the “Kow” value is given as 417.
On to `C[C@]12CC[C@H](O)CC1=CC[C@@H]1[C@@H]2CC[C@]2(C)C(c3cccnc3)=CC[C@@H]12` [Abiraterone], for which the “fb,pl (plasma bound fraction)” value with plasma protein is 0.998. Besides, in the data set with plasma protein (without relevant species differences, ref US FDA [2011]), the “percentage of plasma protein binding” value is on record as 99.8%. The “Free concentration in vivo” value came to 1.68e-05 nM in data set [1] (Cavg), 0.00013 nM in [1] (Cmax), 0.000353 nM in [2] (Cavg) and 0.00163 nM in data set [2] (Cmax). In addition, the “Total concentration in vivo (ECpl)” value was found to be 0.00401 µM in [1] (Cavg), 0.0309 µM in [1] (Cmax), 0.14 µM in data set [2] (Cavg) and 0.647 µM in [2] (Cmax). Further, in [3] (humans, daily oral dose of 1000 mg as abiraterone acetate, ref Goldberg and Berrios-Colon [2013]), the “AUC at steady state” value is 1.173 µg·h/mL. Also, the maximum concentration (Cmax) in [3] (humans, daily oral dose of 1000 mg/kg as abiraterone acetate, ref Goldberg and Berrios-Colon [2013]) was 226 ng/mL. For the same compound, the “Kow” value in data set [4] is 131826.
With `CCCC(CCC)C(=O)O` [Valproic acid], the “concentration inhibiting neural crest cell migration” value in [6] is 10 to 100 µM. Moreover, the “concentration not affecting neuroepithelial precursor cell migration” value in data set [7] is listed as more than 1 mM.

These data come from publication PMC5225183, “Fingerprinting of neurotoxic compounds using a mouse embryonic stem cell dual luminescence reporter assay” (Archives of Toxicology, 2016).
